According to US11596633B2, “SHP2 inhibitor compositions and methods for treating cancer” (Revolution Medicines, Inc., priority 2017, dated 2023):

Legend:
pERK in NCI-H1838 cells = experiment: p-ERK AlphaLisa SureFire; assay type: cell-based; settings: for p-ERK: NCI-H1838 (NF1 LOF)
Protocol: (§1) Cells were plated at ˜20×10^3 cells per well and following overnight incubation were washed with serum-free media. Cells were then incubated for one hour with increasing concentrations of the test article in serum-free media containing 0.2% BSA prior to termination of the assay and measurement of pERK levels in cellular lysates by AlphaLisa SureFire Ultra kit conducted according to the manufacturer's instructions.

RAS-GTP in H358 cells = experiment: RAS-GTP pulldown (Raf-RBD); assay type: cell-based, human
Protocol: To determine the effects of small molecules on levels of activated RAS-GTPase, cell lines of interest were cultured under standard 2D culture conditions. Cells were seeded and following overnight incubation incubated at 37° C. with vehicle (DMSO) or test article(s). After an appropriate incubation period, cells were washed and cell lysis buffer added to prepare a cell lysate. The levels of Ras-GTP in the lysates were determined using affinity purification of a Raf-RBD (Ras binding domain of Raf)/GTP-Ras complex. In one approach, the Pierce Active Ras Pulldown and Detection Kit was used. Briefly, clarified lysates (500 μg total protein, quantified by BCA) were mixed with glutathione resin, which had been preincubated with GST-Raf-RBD. The mixture was vortexed and incubated at 4° C. for 1 hour with gentle rocking. The resin was washed three times with lysis buffer and bound Ras-GTP eluted by addition of 2× reducing sample buffer. […]
To determine the effects of small molecules on levels of activated RAS-GTPase, cell lines of interest were cultured under standard 2D culture conditions. […] The levels of Ras-GTP in the lysates were determined using affinity purification of a Raf-RBD (Ras binding domain of Raf)/GTP-Ras complex. […] Briefly, clarified lysates (500 μg total protein, quantified by BCA) were mixed with glutathione resin which had been preincubated with GST-Raf-RBD. […]

SNU-601 = experiment: 3D cell viability (CTG); assay type: cell-based; settings: SNU-601, KRAS G12D, 3D culture
Protocol: (§3) To evaluate cell viability in 3D culture, cells in logarithmic growth phase were plated in growth medium containing 0.65% methylcellulose at an optimum seeding density. Cells were incubated overnight prior to treatment with different concentrations of the test article. Cells were cultured for an additional seven days and cell viability assessed using the CellTiterGlo™ (CTG) reagent, according to the manufacturer's instructions. In some instances, cells were grown in 3D culture as spheroids. Briefly, 2500 cells/well were seeded in round bottom ultra-low attachment 96-well plates (Corning) in growth media supplemented with 10% fetal bovine serum and 1% penicillin/streptomycin, and allowed to form spheroids for 72 hours at 37° C. in 5% CO2. […] Following drug exposure for five days, cell viability in spheroids was determined using the CellTiter-Glo assay kit.

Capan-1 = experiment: 3D cell viability (CTG); assay type: cell-based; settings: Homo sapiens; Capan-1, KRAS G12V, 3D culture
Protocol: as §3

HPAC = experiment: 3D cell viability (CTG); assay type: cell-based; settings: Homo sapiens, KRAS G12D, 3D culture
Protocol: as §3

NCI-H358 = experiment: 3D cell viability (CTG); assay type: cell-based, human; settings: 3D culture
Protocol: as §3

SK-LU-1 = experiment: 3D cell viability (CTG); assay type: cell-based; settings: Homo sapiens; SK-LU-1, KRAS G12D, 3D culture
Protocol: as §3

[1] = test system: H1838 NF1 LOF NSCLC cells; experiment: Cell growth, crystal violet stain; assay type: cell-based; settings: 10 days
Protocol: To evaluate cell viability in 3D culture, cells in logarithmic growth phase were plated in growth medium containing 0.65% methylcellulose at an optimum seeding density. Cells were incubated overnight prior to treatment with different concentrations of the test article. Cells were cultured for an additional seven days and cell viability assessed using the CellTiterGlo™ (CTG) reagent, according to the manufacturer's instructions. In some instances, cells were grown in 3D culture as spheroids. Briefly, 2500 cells/well were seeded in round bottom ultra-low attachment 96-well plates (Corning) in growth media supplemented with 10% fetal bovine serum and 1% penicillin/streptomycin, and allowed to form spheroids for 72 hours at 37° C. in 5% CO2. […] Following drug exposure for five days, cell viability in spheroids was determined using the CellTiter-Glo assay kit. […] After one day in culture, cells were treated with the test article, which was then replenished every three days. Cells were maintained in culture for 10 days until the control wells reached confluency at which time the cells were fixed and stained with crystal violet.

MDA-MB-231 = experiment: 3D cell viability (CTG); assay type: cell-based; settings: Homo sapiens; MDA-MB-231, KRAS G13D, 3D culture
Protocol: as §3

p-ERK1/2 in H358 cells = experiment: p-ERK AlphaLisa SureFire; assay type: cell-based, human; settings: H358 cells (KRAS G12C)
Protocol: as §1

NCI-H2122 = experiment: 3D cell viability (CTG); assay type: cell-based; settings: Homo sapiens; NCI-H2122, KRAS G12C, 3D culture
Protocol: as §3

[2] = test system: RAS-GTP in NCI-H1838 cells; experiment: RAS-GTP pulldown (Raf-RBD); assay type: cell-based; settings: NCI-H1838 (NF1 LOF)
Protocol: (§2) To determine the effects of small molecules on levels of activated RAS-GTPase, cell lines of interest were cultured under standard 2D culture conditions. Cells were seeded and following overnight incubation incubated at 37° C. with vehicle (DMSO) or test article(s). After an appropriate incubation period, cells were washed and cell lysis buffer added to prepare a cell lysate. The levels of Ras-GTP in the lysates were determined using affinity purification of a Raf-RBD (Ras binding domain of Raf)/GTP-Ras complex. In one approach, the Pierce Active Ras Pulldown and Detection Kit was used. Briefly, clarified lysates (500 μg total protein, quantified by BCA) were mixed with glutathione resin, which had been preincubated with GST-Raf-RBD. The mixture was vortexed and incubated at 4° C. for 1 hour with gentle rocking. The resin was washed three times with lysis buffer and bound Ras-GTP eluted by addition of 2× reducing sample buffer. Eluted proteins were separated by SDS-PAGE using a 4-15% Tris-glycine gel (BioRad). Proteins were transferred to a nitrocellulose membrane for western blot using an anti-Ras antibody (Thermofisher, 1:200) and a Licor IRDye-800 anti-mouse secondary antibody (1:20,000). The Licor Odyssey CLx was used for visualization.
as §2, with “resin” for “resin,”

NCI-H508 = experiment: 3D proliferation (CTG); assay type: cell-based; settings: NCI-H508 (Class III BRAF G596R/+)
Protocol: as §3

pERK in Cal-12T cells = experiment: p-ERK AlphaLisa SureFire; assay type: cell-based; settings: Cal-12T (Class III BRAF G466V/+)
Protocol: as §1

pERK in NCI-H508 cells = experiment: p-ERK AlphaLisa SureFire; assay type: cell-based; settings: NCI-H508 (Class III BRAF G596R/+)
Protocol: as §1

pERK in MeWo cells = experiment: p-ERK AlphaLisa SureFire; assay type: cell-based
Protocol: as §1

p-ERK1/2 in H1792 cells = experiment: p-ERK AlphaLisa SureFire; assay type: cell-based; settings: H1792 cells (KRAS G12C)
Protocol: as §1

pERK in NCI-H1666 cells = experiment: p-ERK AlphaLisa SureFire; assay type: cell-based; settings: NCI-H1666 (Class III BRAF G466V/+)
Protocol: as §1

pERK in A375 cells = experiment: p-ERK AlphaLisa SureFire; assay type: cell-based; settings: A375 (Class I BRAF V600E)
Protocol: as §1

[3] = test system: caspase 3/7 activity in NCI-H358 cells; experiment: Activated Caspase 3/7 assay in spheroids; assay type: cell-based, human; settings: NCI-H358 spheroid cultures
Protocol: Activated Caspase 3/7 Assay in Spheroids. […] Immediately after seeding, cells were spun down at 1000 RPM for 5 minutes, and incubated at 37° C. in 5% CO2 for five days to allow for spheroid formation. Spheroid formation was confirmed visually. […] Caspase 3/7 activity was measured using the Caspase-Glo 3/7 Assay System (Promega), following the manufacturer's instructions. After addition of Caspase-Glo reagent, the well contents were pipetted several times and incubated at room temperature in the dark for 45 minutes to allow thorough cell lysis. 50 μL of the lysate/reaction was transferred to an opaque white 96-well ½ area plates (Perkin Elmer). Luminescence was read in an EnVision Multilabel Plate Reader (Perkin Elmer). Assay data was plotted using Prism 7 (GraphPad) software.

With `Nc1nc(N2CCC3(CCC[C@H]3N)CC2)cnc1Sc1ccnc(Cl)c1Cl` [Compound A] the p-ERK (pERK in NCI-H1838 cells) was “potently inhibited”, the “Ras activation (levels of Ras-GTP)” value (RAS-GTP in H358 cells; H358 cells) was “inhibited” and the IC50 (SNU-601) was 2.9 µM. The IC50 (Capan-1) was > 10 µM, the IC50 (HPAC) was > 10 µM and the cell viability (NCI-H358; H358 cells) was “concentration-dependent inhibition”. For the same compound, the IC50 (NCI-H358; Homo sapiens, NCI-H358, KRAS G12C) was 0.1 µM, the IC50 (SK-LU-1) was > 10 µM and the “cell growth (crystal violet stain)” value [1] was “potently inhibited”. For the same compound, the IC50 (MDA-MB-231) was > 10 µM, the “inhibition of p-ERK1/2 levels” value (p-ERK1/2 in H358 cells) was “concentration-dependent inhibition” and the IC50 (NCI-H2122) was 5.9 µM. The RAS-GTP levels [2] was “inhibited” and the “feedback-driven RAS-GTP accumulation” value ([2]; MEK inhibition by trametinib) was “suppressed this effect”.
For `Cc1nc(N2CCC3(CC2)CO[C@@H](C)[C@H]3N)c(CO)nc1-c1cccc(Cl)c1Cl` [Compound B], the proliferation (NCI-H508) was “suppression”, the pERK levels (pERK in Cal-12T cells) was “suppression” and the IC50 (pERK in NCI-H1838 cells; Homo sapiens, NCI-H1838, 1 h, read-out: geometric mean IC50 for reduction in pERK) was 29 nM. The p-ERK (pERK in NCI-H1838 cells) was “suppression”, the pERK levels (pERK in NCI-H508 cells) was “suppression” and the IC50 (pERK in MeWo cells; Homo sapiens, MeWo, 1 h, read-out: geometric mean IC50 for reduction in pERK) was 24 nM. For the same compound, the pERK (pERK in MeWo cells; MeWo (NF1 LOF)) was “suppression”, the “inhibition of p-ERK1/2 levels” value (p-ERK1/2 in H1792 cells) was “concentration-dependent inhibition” and the pERK levels (pERK in NCI-H1666 cells) was “suppression”. For the same compound, the pERK levels (pERK in A375 cells) was “failed to suppress”, the “RAS-GTP accumulation resulting from MEK inhibition by trametinib” value (RAS-GTP in H358 cells; H358 (KRAS G12C), 6 hour and 24 hour) was “suppressed” and the “caspase 3/7 activity” value [3] was “robust caspase 3/7 activation”. For the same compound, the “inhibition of p-ERK1/2 levels” value (p-ERK1/2 in H358 cells) was “concentration-dependent inhibition” and the RAS-GTP levels [2] was “downregulation”.
